Assay results as given in patent US7390797B2, “Fused indazole compounds” (Eisai Co., Ltd., priority 2002, dated 2008).

Molecular target: T1, Human JNK 3 (Homo sapiens, UniProt P53779)
T1 construct: made in house; host or cells: Escherichia coli
Test: Determination of JNK 3 Inhibition
Format: biochemical
Conditions: GST-JNK 3 enzyme, GST-c-Jun (1-169) substrate, [γ-33P]ATP, 3.33 μM ATP, 30 minutes, SPA beads
Protocol: Test Example 1 Determination of JNK 3 Inhibition
Human JNK 3 was expressed as a fusion protein (GST-JNK 3) with glutathione S-transferase (GST) in Escherichia coli and was purified using glutathione Sepharose 4B beads. The amino acid sequence 1-169 of c-Jun was […] as a fusion protein (GST-c-Jun) with GST in Escherichia coli, was purified using glutathione Sepharose 4B beads and was used as a substrate. A test compound was diluted with 100% dimethyl sulfoxide into 10 mM and was then further diluted with 10% aqueous dimethyl sulfoxide solution to yield a dilution series. To each well of 96-well OPTI plate (available from Packard) were placed 20 μl of the diluted compound, 30 μl of a substrate solution (1.2 μg of GST-c-Jun, […], 0.2 μCi of [γ-^33P]ATP, 25 mM of HEPES pH=7.5, 10 mM of magnesium acetate, and 3.33 μM of ATP), and 50 μl of an enzyme solution (0.04 μg of GST-JNK 3, 25 mM of HEPES pH=7.5, and 10 mM magnesium acetate) up to 100 μl, and the mixture was allowed to react for 30 minutes. After terminating the reaction by adding 100 μl of a reaction terminator (80 mM ATP, 5 mg/ml glutathione SPA beads (available from Amersham Pharmacia Biotech)), the reaction mixture was shaken for 30 minutes. The mixture was centrifuged at room temperature at 1000×g for 5 minutes, and the emission intensity thereof was determined on a TopCount™ illuminator (available from Packard). The activity is expressed by the 50% inhibitory concentration on the enzymatic activity of JNK, i.e., IC50 (nM).

T1 sequence (P53779 whole entry): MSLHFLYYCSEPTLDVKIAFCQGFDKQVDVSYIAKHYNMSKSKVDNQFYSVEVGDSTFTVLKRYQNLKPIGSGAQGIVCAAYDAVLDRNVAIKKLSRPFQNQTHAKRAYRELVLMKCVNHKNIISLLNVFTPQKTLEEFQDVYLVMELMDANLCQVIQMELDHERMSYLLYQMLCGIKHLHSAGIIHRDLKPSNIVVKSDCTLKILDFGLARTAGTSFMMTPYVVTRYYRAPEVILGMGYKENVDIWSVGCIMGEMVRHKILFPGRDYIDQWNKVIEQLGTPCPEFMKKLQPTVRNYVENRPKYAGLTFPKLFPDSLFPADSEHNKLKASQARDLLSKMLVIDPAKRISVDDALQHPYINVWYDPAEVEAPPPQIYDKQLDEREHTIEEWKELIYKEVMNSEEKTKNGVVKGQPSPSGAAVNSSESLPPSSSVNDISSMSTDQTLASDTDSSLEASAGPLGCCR

| Structure (SMILES) | IC50 [nM] |
| --- | --- |
| Cc1ccc2[nH]nc3c2c1NC(=O)c1ccccc1-3 [Example 25, 5-Methyl-6,7-dihydro-2H-benzo[5,6]azepino[4,3,2-cd]indazol-7-one] | ≤ 300 |
| Cc1cc(Br)c2[nH]nc3c2c1NC(=O)c1ccccc1-3 [Example 26, 3-Bromo-5-methyl-6,7-dihydro-2H-benzo[5,6]azepino[4,3,2-cd]indazol-7-one] | ≤ 300 |
| Nc1cccc2c1CCc1cccc3[nH]nc-2c13 [Example 8, 6,7-Dihydro-2H-benzo[6,7]cyclohepta[cd]indazole-8-amine] | ≤ 300 |
| C1=Cc2cccc3[nH]nc(c23)-c2ccccc21 [Example 9, 2H-Benzo[6,7]cyclohepta[cd]indazole] | ≤ 300 |
| OCc1cccc2c1CCc1cccc3[nH]nc-2c13 [Example 1, 6,7-Dihydro-2H-benzo[6,7]cyclohepta[cd]indazol-8-ylmethanol] | ≤ 300 |

More lines, now with the values ahead:

| IC50 [nM] | Structure (SMILES) |
| --- | --- |
| ≤ 300 | O=C(NCc1ccco1)c1cccc2c1C=Cc1cccc3[nH]nc-2c13 [Example 20, N8-(2-Furylmethyl)-2H-benzo[6,7]cyclohepta[cd]indazole-8-carboxamide] |
| ≤ 300 | O=C(NC1CC1)c1cccc2c1C=Cc1cccc3[nH]nc-2c13 [Example 21, N8-Cyclopropyl-2H-benzo[6,7]cyclohepta[cd]indazole-8-carboxamide] |
| ≤ 300 | OCc1cccc2c1C=Cc1cccc3[nH]nc-2c13 [Example 6, 2H-Benzo[6,7]cyclohepta[cd]indazol-8-ylmethanol] |
